Experimental data published in the NIST ThermoML archive (doi:10.1021/acs.jced.5b00198).
Values joined by “and” are separate entries in the source; they are usually repeats but may differ in a detail not shown here. Equal values may be shown once. ± gives the expanded uncertainty stated by the source.

Assay: mn = molality of the nth substance listed, in mol/kg
Conditions: 101 kPa, Liquid; for viscosity: Capillary tube (Ostwald / Ubbelohde) method; for speed of sound: Frequency=3 MHz, Sing-around technique in a fixed-path interferometer; for mass density: Vibrating tube method

Question: For `CCCC[N+](CCCC)(CCCC)CCCC.[I-]` [tetrabutylammonium iodide] + O, which viscosity (288.15 K, m1 = 0.01) is on record?
Answer: 1.173 ± 0.015 mPa·s and 1.171 ± 0.015 mPa·s

Question: What about the viscosity (288.15 K, m1 = 0.03) of the same compound?
Answer: 1.197 ± 0.015 mPa·s and 1.201 ± 0.015 mPa·s and 1.205 ± 0.015 mPa·s

Question: What about the speed of sound (288.15 K, m1 = 0.01) of the same compound?
Answer: 1468.9 ± 1.2 m/s

Question: And the speed of sound (288.15 K, m1 = 0.03)?
Answer: 1473.6 ± 1.2 m/s

Question: What about the mass density (288.15 K, m1 = 0.01) of the same compound?
Answer: 1001.07 ± 4 kg/m3

Question: And the mass density (288.15 K, m1 = 0.03)?
Answer: 1002.22 ± 4 kg/m3

Question: And the viscosity (293.15 K, m1 = 0.01)?
Answer: 1.006 ± 0.013 mPa·s and 1.007 ± 0.013 mPa·s

Question: What about the viscosity (293.15 K, m1 = 0.03) of the same compound?
Answer: 1.033 ± 0.014 mPa·s and 1.025 ± 0.013 mPa·s and 1.036 ± 0.014 mPa·s

Question: And the speed of sound (293.15 K, m1 = 0.01)?
Answer: 1484.9 ± 1.2 m/s

Question: What about the speed of sound (293.15 K, m1 = 0.03) of the same compound?
Answer: 1489.1 ± 1.2 m/s

Question: What about the mass density (293.15 K, m1 = 0.01) of the same compound?
Answer: 1000.16 ± 4 kg/m3

Question: And the mass density (293.15 K, m1 = 0.03)?
Answer: 1001.29 ± 4 kg/m3

Question: And the viscosity (298.15 K, m1 = 0.01)?
Answer: 0.861 ± 0.011 mPa·s and 0.862 ± 0.011 mPa·s

Question: What about the viscosity (298.15 K, m1 = 0.03) of the same compound?
Answer: 0.883 ± 0.011 mPa·s and 0.882 ± 0.011 mPa·s and 0.884 ± 0.011 mPa·s

Question: And the speed of sound (298.15 K, m1 = 0.01)?
Answer: 1498.9 ± 1.2 m/s

Question: And the speed of sound (298.15 K, m1 = 0.03)?
Answer: 1502.8 ± 1.2 m/s

Question: What about the mass density (298.15 K, m1 = 0.01) of the same compound?
Answer: 998.972 ± 4 kg/m3

Question: And the mass density (298.15 K, m1 = 0.03)?
Answer: 1000.09 ± 4 kg/m3

Question: And the viscosity (303.15 K, m1 = 0.01)?
Answer: 0.818 ± 0.01 mPa·s and 0.817 ± 0.01 mPa·s

Question: And the viscosity (303.15 K, m1 = 0.03)?
Answer: 0.83 ± 0.01 mPa·s and 0.828 ± 0.01 mPa·s and 0.831 ± 0.01 mPa·s

Question: And the speed of sound (303.15 K, m1 = 0.01)?
Answer: 1511.1 ± 1.2 m/s

Question: What about the speed of sound (303.15 K, m1 = 0.03) of the same compound?
Answer: 1514.5 ± 1.2 m/s

Question: And the mass density (303.15 K, m1 = 0.01)?
Answer: 997.53 ± 4 kg/m3

Question: And the mass density (303.15 K, m1 = 0.03)?
Answer: 998.614 ± 4 kg/m3

Question: And the viscosity (308.15 K, m1 = 0.01)?
Answer: 0.731 ± 0.009 mPa·s and 0.732 ± 0.009 mPa·s

Question: What about the viscosity (308.15 K, m1 = 0.03) of the same compound?
Answer: 0.739 ± 0.009 mPa·s and 0.744 ± 0.009 mPa·s

Question: And the speed of sound (308.15 K, m1 = 0.01)?
Answer: 1521.2 ± 1.2 m/s

Question: What about the speed of sound (308.15 K, m1 = 0.03) of the same compound?
Answer: 1524.4 ± 1.2 m/s

Question: What about the mass density (308.15 K, m1 = 0.01) of the same compound?
Answer: 995.952 ± 4 kg/m3

Question: And the mass density (308.15 K, m1 = 0.03)?
Answer: 997.021 ± 4 kg/m3
